Experimental data reported in PubChem BioAssay AID328 (DTP/NCI, 2004).
Where “and” joins values, the source holds several entries; their conditions need not be identical. Equal values may be shown once. Toxic doses and inconclusive results are not listed.

Test system: BDF1 mice, P388 leukemia ip, median survival T/C
Experiment: NCI In Vivo Anticancer Drug Screen. Data for tumor model P388 Leukemia (intraperitoneal) in B6D2F1 (BDF1) mice
Conditions: endpoint: median survival time, higher = longer survival
Description: The antitumor activity of compounds was measured in mice bearing transplantable tumors. Survival or tumor size were measured and the results are expressed as the measurement made in the treated group (T) divided by the measurement made in the vehicle treated control group (C). The tumor model used in this assay is P388 Leukemia (intraperitoneal) in B6D2F1 (BDF1) mice

[1] = dose: 50.0 mg/kg/injection, schedule: Q01DX009 (ip), vehicle: saline with Tween-80
[2] = dose: 100.0 mg/kg/injection, schedule: Q01DX009 (ip), vehicle: saline with Tween-80
[3] = dose: 200.0 mg/kg/injection, schedule: Q01DX009 (ip), vehicle: saline with Tween-80
[4] = dose: 100.0 mg/kg/injection, schedule: Q04DX003 (ip), vehicle: Klucel (hydroxypropylcellulose) (HPC)
[5] = dose: 200.0 mg/kg/injection, schedule: Q04DX003 (ip), vehicle: Klucel (hydroxypropylcellulose) (HPC)
[6] = dose: 3.13 mg/kg/injection, schedule: Q01DX009 (ip), vehicle: saline
[7] = dose: 6.25 mg/kg/injection, schedule: Q01DX009 (ip), vehicle: saline
[8] = dose: 12.5 mg/kg/injection, schedule: Q01DX009 (ip), vehicle: Klucel (hydroxypropylcellulose) (HPC)
[9] = dose: 25.0 mg/kg/injection, schedule: Q01DX009 (ip), vehicle: Klucel (hydroxypropylcellulose) (HPC)
[10] = dose: 50.0 mg/kg/injection, schedule: Q01DX009 (ip), vehicle: Klucel (hydroxypropylcellulose) (HPC)
[11] = dose: 100.0 mg/kg/injection, schedule: Q04DX003 (ip), vehicle: saline with Tween-80
[12] = dose: 50.0 mg/kg/injection, schedule: Q04DX003 (ip), vehicle: Klucel (hydroxypropylcellulose) (HPC)

`Cc1cc(C)c(CCO)c(C)c1` was tested, and the T/C (dose: 0.37 mg/kg/injection, schedule: Q01DX009 (ip), vehicle: DMSO) was 113 % of control, the T/C (dose: 0.75 mg/kg/injection, schedule: Q01DX009 (ip), vehicle: DMSO) was 113 % of control and the T/C (dose: 1.5 mg/kg/injection, schedule: Q01DX009 (ip), vehicle: DMSO) was 95 % of control. For the same molecule, the T/C (dose: 3.0 mg/kg/injection, schedule: Q01DX009 (ip), vehicle: DMSO) was 88 % of control and 109 % of control, the T/C (dose: 12.0 mg/kg/injection, schedule: Q01DX009 (ip), vehicle: DMSO) was 92 % of control and the T/C (dose: 25.0 mg/kg/injection, schedule: Q04DX003 (ip), vehicle: DMSO) was 88 % of control. For the same molecule, the T/C (dose: 50.0 mg/kg/injection, schedule: Q04DX003 (ip), vehicle: DMSO) was 88 % of control.

For `[Br][Co][Br].[NH-]CC[NH-].[NH-]CC[NH-]`, the T/C (dose: 200.0 mg/kg/injection, schedule: Q04DX003 (ip), vehicle: saline) was 109 % of control.

In the case of `CCN(CC)CCNC1=CC(=S)NC(C)(C)C1`, the T/C (dose: 25.0 mg/kg/injection, schedule: Q01DX009 (ip), vehicle: saline with Tween-80) is reported as 101 % of control, the T/C [1] is reported as 89 % of control and 111 % of control and the T/C [2] is reported as 100 % of control. The T/C [3] was 88 % of control and 117 % of control.

In the case of `CCCCCCCCN(C)N=Nc1ccc(Cl)cc1C(=O)O`, the T/C [2] is reported as 94 % of control, the T/C [3] is reported as 116 % of control and the T/C (dose: 400.0 mg/kg/injection, schedule: Q01DX009 (ip), vehicle: saline with Tween-80) is reported as 88 % of control.

`CCOC(=O)C1(C)C(=O)CC2c3nc4ccccc4cc3CN2C1=O` (stereo not drawn) was tested, and the T/C [4] was 100 % of control, the T/C [5] was 100 % of control and the T/C (dose: 400.0 mg/kg/injection, schedule: Q04DX003 (ip), vehicle: Klucel (hydroxypropylcellulose) (HPC)) was 100 % of control.

`CCSC1(SCC)C(=O)OC2=C(CCCCC2)C1N(C)C` (stereo not drawn) was tested, and the T/C [1] was 96 % of control, the T/C [2] was 95 % of control and the T/C [3] was 103 % of control.

In the case of `O=CNC(Cc1ccc(N(CCCl)CCCl)cc1)C(=O)O` (stereo not drawn), the T/C (dose: 1.1 mg/kg/injection, schedule: Q01DX009 (ip), vehicle: Klucel (hydroxypropylcellulose) (HPC)) is reported as 107 % of control, the T/C (dose: 1.46 mg/kg/injection, schedule: Q04DX003 (ip), vehicle: saline) is reported as 104 % of control and the T/C (dose: 1.56 mg/kg/injection, schedule: Q01DX009 (ip), vehicle: saline) is reported as 118 % of control. The T/C (dose: 1.7 mg/kg/injection, schedule: Q01DX009 (ip), vehicle: Klucel (hydroxypropylcellulose) (HPC)) was 107 % of control, the T/C (dose: 2.2 mg/kg/injection, schedule: Q04DX003 (ip), vehicle: saline) was 100 % of control and the T/C [6] was 104 % of control. For the same molecule, the T/C (dose: 3.3 mg/kg/injection, schedule: Q04DX003 (ip), vehicle: saline) was 118 % of control, the T/C (dose: 5.0 mg/kg/injection, schedule: Q04DX003 (ip), vehicle: saline) was 122 % of control and the T/C (dose: 6.25 mg/kg/injection, schedule: Q01DX009 (ip), vehicle: Klucel (hydroxypropylcellulose) (HPC)) was 175 % of control. The T/C [7] was 181 % of control, the T/C (dose: 8.3 mg/kg/injection, schedule: Q04DX003 (ip), vehicle: Klucel (hydroxypropylcellulose) (HPC)) was 109 % of control and the T/C (dose: 11.0 mg/kg/injection, schedule: Q04DX003 (ip), vehicle: saline) was 160 % of control. For the same molecule, the T/C (dose: 12.0 mg/kg/injection, schedule: Q04DX003 (ip), vehicle: Klucel (hydroxypropylcellulose) (HPC)) was 118 % of control, the T/C [8] was 185 % of control and the T/C (dose: 16.0 mg/kg/injection, schedule: Q01DX009 (ip), vehicle: Klucel (hydroxypropylcellulose) (HPC)) was 160 % of control and 200 % of control. The T/C (dose: 16.5 mg/kg/injection, schedule: Q04DX003 (ip), vehicle: saline) was 163 % of control and 169 % of control, the T/C (dose: 23.3 mg/kg/injection, schedule: Q01DX009 (ip), vehicle: Klucel (hydroxypropylcellulose) (HPC)) was 170 % of control and the T/C [9] was 230 % of control and 220 % of control. The T/C (dose: 25.0 mg/kg/injection, schedule: Q04DX003 (ip), vehicle: saline) was 172 % of control and 200 % of control, the T/C (dose: 29.0 mg/kg/injection, schedule: Q04DX003 (ip), vehicle: Klucel (hydroxypropylcellulose) (HPC)) was 115 % of control and the T/C (dose: 35.0 mg/kg/injection, schedule: Q01DX009 (ip), vehicle: Klucel (hydroxypropylcellulose) (HPC)) was 245 % of control and 195 % of control. The T/C (dose: 37.5 mg/kg/injection, schedule: Q04DX003 (ip), vehicle: saline) was 234 % of control and 186 % of control, the T/C (dose: 40.0 mg/kg/injection, schedule: Q04DX003 (ip), vehicle: Klucel (hydroxypropylcellulose) (HPC)) was 204 % of control and the T/C (dose: 44.0 mg/kg/injection, schedule: Q04DX003 (ip), vehicle: Klucel (hydroxypropylcellulose) (HPC)) was 240 % of control. The T/C [10] was 272 % of control, the T/C (dose: 60.0 mg/kg/injection, schedule: Q04DX003 (ip), vehicle: Klucel (hydroxypropylcellulose) (HPC)) was 272 % of control and the T/C (dose: 66.0 mg/kg/injection, schedule: Q04DX003 (ip), vehicle: Klucel (hydroxypropylcellulose) (HPC)) was 280 % of control. For the same molecule, the T/C [4] was 175 % of control, the T/C [11] was 95 % of control and the T/C (dose: 132.0 mg/kg/injection, schedule: Q04DX003 (ip), vehicle: Klucel (hydroxypropylcellulose) (HPC)) was 250 % of control. The T/C [5] was 185 % of control.

For `OC(O)C(F)(F)F`, the T/C (dose: 15.0 mg/kg/injection, schedule: Q04DX003 (ip), vehicle: saline with Tween-80) was 100 % of control, the T/C (dose: 30.0 mg/kg/injection, schedule: Q04DX003 (ip), vehicle: saline with Tween-80) was 100 % of control and the T/C (dose: 60.0 mg/kg/injection, schedule: Q04DX003 (ip), vehicle: saline with Tween-80) was 95 % of control. The T/C [11] was 104 % of control, the T/C (dose: 200.0 mg/kg/injection, schedule: Q04DX003 (ip), vehicle: saline with Tween-80) was 113 % of control and the T/C (dose: 400.0 mg/kg/injection, schedule: Q04DX003 (ip), vehicle: saline with Tween-80) was 104 % of control.

With `CCCC1CCC(=C2C(=O)CCC2=O)O1` (stereo not drawn) the T/C [6] was 119 % of control, the T/C [7] was 119 % of control and the T/C (dose: 12.5 mg/kg/injection, schedule: Q01DX009 (ip), vehicle: saline) was 119 % of control. For the same molecule, the T/C (dose: 25.0 mg/kg/injection, schedule: Q01DX009 (ip), vehicle: saline) was 119 % of control, the T/C (dose: 25.0 mg/kg/injection, schedule: Q04DX002 (ip), vehicle: saline with Tween-80) was 113 % of control and the T/C (dose: 25.0 mg/kg/injection, schedule: Q04DX002 (ip), vehicle: saline) was 107 % of control. The T/C (dose: 50.0 mg/kg/injection, schedule: Q04DX002 (ip), vehicle: saline with Tween-80) was 103 % of control, the T/C (dose: 50.0 mg/kg/injection, schedule: Q04DX002 (ip), vehicle: saline) was 100 % of control and the T/C (dose: 100.0 mg/kg/injection, schedule: Q04DX002 (ip), vehicle: saline with Tween-80) was 120 % of control. For the same molecule, the T/C (dose: 200.0 mg/kg/injection, schedule: Q04DX002 (ip), vehicle: saline) was 105 % of control.

In the case of `Cc1cc(O)c(C(c2ccc(Cl)cc2)c2c(O)cc(C)[nH]c2=O)c(=O)[nH]1`, the T/C [1] is reported as 108 % of control, the T/C [2] is reported as 108 % of control and the T/C [3] is reported as 105 % of control.

In the case of `C=C(CC(=O)O)C(=O)O` (tested in a mixture with another compound), the T/C (dose: 44.0 mg/kg/injection, schedule: Q01DX009 (ip), vehicle: saline) is reported as 120 % of control.

For `Cc1cccc(N=P(c2ccccc2)(c2ccccc2)c2ccccc2)c1`, the T/C [10] was 109 % of control, the T/C [12] was 109 % of control and the T/C (dose: 100.0 mg/kg/injection, schedule: Q01DX009 (ip), vehicle: Klucel (hydroxypropylcellulose) (HPC)) was 118 % of control. The T/C [4] was 100 % of control, the T/C (dose: 133.0 mg/kg/injection, schedule: Q01DX009 (ip), vehicle: Klucel (hydroxypropylcellulose) (HPC)) was 117 % of control and the T/C (dose: 200.0 mg/kg/injection, schedule: Q01DX009 (ip), vehicle: Klucel (hydroxypropylcellulose) (HPC)) was 108 % of control. The T/C [5] was 95 % of control.

`O=c1ccc2cc(-c3c(Oc4cc5ccc(O)cc5oc4=O)ccc4ccc(=O)oc34)c(O)cc2o1` was tested, and the T/C (dose: 3.0 mg/kg/injection, schedule: Q01DX009 (ip), vehicle: saline) was 96 % of control, the T/C (dose: 6.0 mg/kg/injection, schedule: Q01DX009 (ip), vehicle: saline) was 111 % of control and the T/C (dose: 12.0 mg/kg/injection, schedule: Q01DX009 (ip), vehicle: saline) was 105 % of control.

In the case of `CCC(C)(O)C#CC#CC(C)(O)CC` (stereo not drawn), the T/C [8] is reported as 100 % of control, the T/C (dose: 12.5 mg/kg/injection, schedule: Q04DX003 (ip), vehicle: Klucel (hydroxypropylcellulose) (HPC)) is reported as 100 % of control and the T/C [9] is reported as 100 % of control. The T/C (dose: 25.0 mg/kg/injection, schedule: Q04DX003 (ip), vehicle: Klucel (hydroxypropylcellulose) (HPC)) was 90 % of control, the T/C [10] was 113 % of control and the T/C [12] was 95 % of control.
